Measured values as given in article PMC9788431, “Combination of Docking-Based and Pharmacophore-Based Virtual Screening Identifies Novel Agonists That Target the Urotensin Receptor” (Molecules, 2022).
“Also recorded” adds a separate entry of the source.

Legend:
UT receptor [1] = biological target: T1, UT receptor (Homo sapiens, UniProt Q9UKP6); assay: luciferase β-arrestin recruitment-based assay; format: cell-based
T1 construct: SNAP-tag; expressed in transfected cells; host or cells: 293A8 (HEK293A stably transfected with the UT receptor); inferred, the calcium-assay paragraph names no cells
T1 sequence (Q9UKP6 1-389): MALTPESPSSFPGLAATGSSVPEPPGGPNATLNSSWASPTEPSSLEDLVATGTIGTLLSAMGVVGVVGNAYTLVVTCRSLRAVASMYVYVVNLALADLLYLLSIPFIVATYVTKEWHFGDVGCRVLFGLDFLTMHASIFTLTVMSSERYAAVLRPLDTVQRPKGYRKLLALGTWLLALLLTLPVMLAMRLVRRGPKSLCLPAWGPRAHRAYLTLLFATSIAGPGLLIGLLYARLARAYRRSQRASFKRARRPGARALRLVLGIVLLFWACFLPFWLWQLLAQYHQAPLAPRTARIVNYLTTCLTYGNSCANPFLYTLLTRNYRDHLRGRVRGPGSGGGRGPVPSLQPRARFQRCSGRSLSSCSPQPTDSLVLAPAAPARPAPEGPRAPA
Description: (§1) HTLA cells (a HEK293 cell line stably expressing a tTA-dependent luciferase reporter and a β-arrestin2-TEV fusion gene) were a gift from the laboratory of R. Axel (he has given us permission to distribute them) and are maintained in DMEM supplemented with 10% FBS, 100 U/mL penicillin and 100 μg/mL streptomycin, 2 μg/mL puromycin and 100 μg/mL hygromycin B. HepG2 cells (C5 passage, human hepatoma cell line) were purchased from the National Platform of Experimental Cell Resources for Sci-Tech, Chinese Academy of Medical Sciences (Beijing, China), and 293A8 cells were the cell line HEK293A stably transfected with the UT receptor in our laboratory. HepG2 and 293A8 cells were grown in high glucose (25 mmol/L) Dulbecco’s modified Eagle’s medium (DMEM, Gibco, CA, USA) supplemented with 10% fetal bovine serum (FBS, Gibco, CA, USA), 100 U/mL penicillin and 100 µg/mL streptomycin solution (Solarbio, Beijing, China). Cells were cultured in a standard humidified incubator at 37 °C under a 5% CO2 atmosphere. The media were changed every 2 days. Subcultures were performed at a ratio of 1:3 when cells were approximately 75–85% confluent.
The β-arrestin recruitment-based experiments were performed according to previous reports with slight modifications. In brief, the UT receptor plasmid was transfected into HTLA cells with the transfection reagent PEI when the cell confluence reached approximately 80%. Transfected cells were seeded in 96-well plates at a density of 1.5 × 10^5 cells/well. After 24 h, the cells were treated with compounds diluted to the specified concentration using 10% FBS DMEM. Following the next 24 h incubation with compounds, the medium was removed and Bright-GloTM (Promega, Madison, WI, USA) reagent was added immediately. Then, the activity of firefly luciferase luminescence (RLUF) was measured using a SpectraMax M5 microplate reader (Molecular devices, LLC., San Jose, CA, USA).

UT receptor [2] = biological target: T1, UT receptor; assay: intracellular calcium mobilization (Fluo-8 calcium assay); format: cell-based; settings: for agonist behaviour in calcium assay: in words
Description: as §1
Measurement of intracellular calcium mobilization was performed using Fluo-8 Calcium Assay Kit (Applygen, Beijing, China) following the manufacturer’s instructions.

HepG2 cells [3] = assay: glucose consumption; format: cell-based, human
Description: as §1
(§2) Glucose consumption detection was performed as described previously. In brief, HepG2 cells in 96-well plates at a density of 8000 cells/well were treated with compounds at 37 °C, and 5% CO2. After the indicated duration, the media from cultured cells were taken for glucose and lactic acid detection. The glucose levels were detected by a blood-glucose kit from Biosino Biotechnology (Beijing, China). The amount of glucose consumption was calculated by subtracting the initial glucose level from the remaining glucose in the wells. The lactate content was measured using the lactic acid assay kit (Nanjing Jiancheng Bioengineering Institute, Nanjing, China) according to the manufacturer’s instructions.

HepG2 cells [4] = assay: lactic acid release; format: cell-based, human
Description: as §1, §2

HepG2 cells [5] = assay: cell viability (CCK-8); format: cell-based, human; settings: 24 h
Description: as §1
Cell viability was detected by Cell Counting Kit-8 (CCK-8) per the instructions of the technical manual (Dojindo, Kumamoto, Japan). In brief, the cells were seeded in a 96-well plate and incubated overnight in the cell culture incubator. After the cells were treated with compounds for a certain period, the CCK-8 test solution was added at 1/10 of the total volume. Then, the plates were incubated in the incubator for 2 h, and the absorbance at 450 nm was measured using a SpectraMax M5 microplate reader (Molecular Devices, LLC, San Jose, CA, USA).

[6] = chronic administration, cited from earlier work
[7] = parameters: method as in PMID 19696412; settings: cited from earlier work
[8] = HTLA cells transfected with UT receptor plasmid
[9] = HTLA cells transfected with UT receptor plasmid, 24 h incubation, read-out: β-arrestin recruitment-based assay EC50
[10] = intracellular calcium mobilization
[11] = intracellular calcium mobilization, fluorescence-based, read-out: Calcium assay EC50

| SMILES | β-arrestin recruitment-based assay Emax (UT receptor [1]; [8]) | EC50 (UT receptor [1]; [9]) [µM] | agonist behaviour in calcium assay (UT receptor [2]) | Calcium assay Emax (UT receptor [2]; [10]) | EC50 (UT receptor [2]; [11]) [µM] | glucose consumption (HepG2 cells [3]; 48 h total glucose consumption) | lactic acid release (HepG2 cells [4]) | cell viability (HepG2 cells [5]) | EC50 (UT receptor [1]) [µM] | EC50 (UT receptor [2]) [µM] | glucose consumption (HepG2 cells [3]; at higher concentrations (10^−6 M, 10^−5 M)) | whole-body glucose tolerance ([6]; high-fat-diet-fed mice) | glucose tolerance ([6]; obese mice) | glucose consumption in vitro [7] | effect of palosuran preincubation on compound-induced intracellular calcium mobilization (UT receptor [2]; palosuran 10^−7 M, with Compounds 1, 2, 3) |
| --- | --- | --- | --- | --- | --- | --- | --- | --- | --- | --- | --- | --- | --- | --- | --- |
| C=CC(C)(C)c1c(O)cc(O)c2c(=O)c(O)c(-c3cc(O)c4c(c3)C=CC(C)(C)O4)oc12 [Compound 1] | 4.85 | 0.0897 | full potent agonist | 5.62 | 7.39 | significantly accelerate 48 h total glucose consumption; also recorded: promote glucose utilization | reduced lactic acid production | did not affect; also recorded: without obvious cytotoxic effects |  |  |  |  |  |  |  |
| O=C(c1ccc([N+](=O)[O-])o1)N1CCN(c2ccc([N+](=O)[O-])cc2)CC1 [Compound 2] | 2.40 |  |  | 4.08 |  | no significant differences | no significant differences | no significant differences | 0.037 | 10.2 |  |  |  |  |  |
| O=C(NCCc1cccs1)C1(c2ccccc2)CCCC1 [Compound 3] | 3.26 | 0.0448 | weak activity | 2.37 | 10.6 |  | reduced lactic acid production | significantly reduced cell viability |  |  | significantly increased glucose consumption |  |  |  |  |
| CC(C)[C@H](NC(=O)[C@@H]1CSSC[C@H](NC(=O)[C@H](CC(=O)O)NC(=O)[C@@H]2CCCN2C(=O)[C@@H](NC(=O)[C@@H](N)CCC(=O)O)[C@@H](C)O)C(=O)N[C@@H](Cc2ccccc2)C(=O)N[C@@H](Cc2c[nH]c3ccccc23)C(=O)N[C@@H](CCCCN)C(=O)N[C@@H](Cc2ccc(O)cc2)C(=O)N1)C(=O)O [U-II, urotensin-II] | 8.32 |  |  | 5.27 |  |  |  |  |  |  |  | improves whole-body glucose tolerance | improved glucose tolerance | increases glucose consumption |  |
| Cc1cc(NC(=O)NCCN2CCC(O)(Cc3ccccc3)CC2)c2ccccc2n1 [palosuran] |  |  |  |  |  |  |  |  |  |  |  |  |  |  | specifically reduced the increase in intracellular calcium mobilization |
